Reference: paper PMC7524204 (Clinical cancer research : an official journal of the …, 2016)

Columns and labels:
8505C cells [1] = test: Mouse orthotopic xenograft model of ATC, survival; conditions: for Median Survival: Nu/Nu mice, thyroid orthotopic 8505C, control 22 days; for Hazard ratio: relative Control (untreated) mice, orthotopic 8505C
[2] = for Histological evidence of toxicity: GI, affected/total (fraction) / Histological evidence of toxicity: Heart, affected/total (fraction) / Histological evidence of toxicity: Liver, Glycogen, affected/total (fraction) / Histological evidence of toxicity: Liver, Vaculation, affected/total (fraction) / Histological evidence of toxicity: Pancreas, affected/total (fraction): C57BL6/J; for Histological evidence of toxicity: GI, affected/total (fraction) / Histological evidence of toxicity: Heart, affected/total (fraction) / Histological evidence of toxicity: Liver, Glycogen, affected/total (fraction) / Histological evidence of toxicity: Liver, Vaculation, affected/total (fraction) / Histological evidence of toxicity: Pancreas, affected/total (fraction) / Lethality or lethargy: 7 days; for Lethality or lethargy: super-therapeutic doses
THJ-16T = test: 72-hr survival dose-response of ATC cell line THJ-16T
8505C = test: Flow cytometric sub-G1 programmed cell death; assay type: cell-based, human; conditions: short-term treatment, S10, Q20, S10Q20
NFκB-p65 (RelA) = test: Western blot of NFκB-p65/RelA expression; assay type: cell-based, human; conditions: 8505C and THJ-16T cells, S 10 µM, Q 20 µM
8505C cells [3] = test: CellTiter-Glo dose-response in 8505C cells after siRNA knockdown; assay type: cell-based, human; conditions: for IC50: Homo sapiens, 72 h
THJ-29T = test: 72-hr survival dose-response of ATC cell line THJ-29T; assay type: cell-based; conditions: Homo sapiens
THJ-21T = test: 72-hr survival dose-response of ATC cell line THJ-21T; assay type: cell-based; conditions: Homo sapiens

Which results are given for `COc1cccc2c1C(=O)c1c(O)c3c(c(O)c1C2=O)C[C@@](O)(C(=O)CO)C[C@@H]3O[C@H]1C[C@H](N)[C@H](O)[C@H](C)O1` [Doxorubicin]?
Median Survival (8505C cells [1]): 31 days; Hazard ratio (8505C cells [1]): 0.709; Histological evidence of toxicity: GI, affected/total (fraction) ([2]; mouse, in vivo): 4/5 (0.80); Histological evidence of toxicity: Heart, affected/total (fraction) ([2]; mouse, in vivo): 0/5 (0); Histological evidence of toxicity: Liver, Glycogen, affected/total (fraction) ([2]; mouse, in vivo): 3/5 (0.60); Histological evidence of toxicity: Liver, Vaculation, affected/total (fraction) ([2]; mouse, in vivo): 4/5 (0.80); Histological evidence of toxicity: Pancreas, affected/total (fraction) ([2]; mouse, in vivo): 4/5 (0.80); Level of platelets in blood ([2]; mouse, in vivo): increased level; Number of RBC's and hemoglobin (Hgb) ([2]; mouse, in vivo): reduction; Lethality or lethargy [2]: No lethality or lethargy

What does the source list for `CCN(CC)CCCC(C)Nc1c2ccc(Cl)cc2nc2ccc(OC)cc12` (centres unmarked) [Quinacrine]?
IC50 (THJ-16T; Homo sapiens, 72 h): 18.4 µM; sub-G1 DNA (8505C): Increased; Median Survival (8505C cells [1]): 32 days; Expression of NFκB-p65 (RelA) (NFκB-p65 (RelA)): inhibited; Impact of p65/RelA siRNA on survival dose-response relationship (8505C cells [3]): did not have any significant impact; Effect of Mcl-1 knockdown on IC50 (8505C cells [3]; Mcl-1 siRNA): did not affect; IC50 (THJ-29T): 12.7 µM; IC50 (THJ-21T): 15.4 µM; Histological evidence of toxicity: GI, affected/total (fraction) ([2]; mouse, in vivo): 0/4 (0); Histological evidence of toxicity: Heart, affected/total (fraction) ([2]; mouse, in vivo): 1/5 (0.20); Histological evidence of toxicity: Liver, Glycogen, affected/total (fraction) ([2]; mouse, in vivo): 3/4 (0.75); Histological evidence of toxicity: Liver, Vaculation, affected/total (fraction) ([2]; mouse, in vivo): 3/4 (0.75); Histological evidence of toxicity: Pancreas, affected/total (fraction) ([2]; mouse, in vivo): 0/4 (0)

For `CNC(=O)c1cc(Oc2ccc(NC(=O)Nc3ccc(Cl)c(C(F)(F)F)c3)cc2)ccn1` [Sorafenib], which IC50 (THJ-16T; THJ-16T, 72-hr survival) is on record?
Its IC50 is 31 µM.

What about the “sub-G1 DNA” value (8505C) of the same compound?
Its value is “Increased”.

And the “Median Survival” value (8505C cells [1])?
The value was 26 days.

And the Hazard ratio (8505C cells [1])?
The Hazard ratio was 0.846.

What about the “Increased sensitization by p65/RelA siRNA compared to Scr siRNA” value (8505C cells [3]) of the same compound?
Its value is “approximately 2 fold”.

What about the IC50 (8505C cells [3]; scrambled (Scr) siRNA) of the same compound?
Its IC50 is 10.5 µM.

What about the IC50 (8505C cells [3]; siRNA targeting p65/RelA) of the same compound?
The IC50 was 5.15 µM.

What about the IC50 (THJ-29T) of the same compound?
Its IC50 is 4.5 µM.

And the IC50 (THJ-21T)?
The IC50 was 12.4 µM.

What about the “Histological evidence of toxicity: GI, affected/total (fraction)” value ([2]; mouse, in vivo) of the same compound?
Its value is 0/5 (0).

And the “Histological evidence of toxicity: Heart, affected/total (fraction)” value ([2]; mouse, in vivo)?
The value was 0/5 (0).

And the “Histological evidence of toxicity: Liver, Glycogen, affected/total (fraction)” value ([2]; mouse, in vivo)?
Its value is 4/5 (0.80).

What about the “Histological evidence of toxicity: Liver, Vaculation, affected/total (fraction)” value ([2]; mouse, in vivo) of the same compound?
Its value is 4/5 (0.80).

And the “Histological evidence of toxicity: Pancreas, affected/total (fraction)” value ([2]; mouse, in vivo)?
The value was 5/5 (1.00).

And the Lethality or lethargy [2]?
Its Lethality or lethargy is “No lethality or lethargy”.
